Test results: the supplement of paper PMC11451515

Test system: NOMO1
Test: cell viability relative to DMSO control; higher = less cytotoxic
Details: 48 h
Outline: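 Library compounds in DMSO were pin-dosed into 1536-well plates (5 μl) holding NOMO1 or SEM (500 cells/well) or P12-Ichikawa (1000 cells/well) leukemia cells, across an 11-point threefold series of 47 μM to 0.79 nM. Each cell line had been adapted for at least four passages in each medium. CellTiter-Glo One luminescence was read after 48 h at 37°C. Viability is the per-plate percentage relative to DMSO wells, with cell-free wells as background.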

[1] = HPLM + 10% dialyzed FBS, 0.000781 µM
[2] = HPLM + 10% dialyzed FBS, 0.00234 µM
[3] = HPLM + 10% dialyzed FBS, 0.00702 µM
[4] = HPLM + 10% dialyzed FBS, 0.0211 µM
[5] = HPLM + 10% dialyzed FBS, 0.0632 µM
[6] = HPLM + 10% dialyzed FBS, 0.19 µM
[7] = HPLM + 10% dialyzed FBS, 0.569 µM
[8] = HPLM + 10% dialyzed FBS, 1.71 µM
[9] = HPLM + 10% dialyzed FBS, 5.12 µM
[10] = HPLM + 10% dialyzed FBS, 15.4 µM
[11] = HPLM + 10% dialyzed FBS, 46.1 µM
[12] = RPMI 5 mM glucose + 10% FBS, 0.000781 µM
[13] = RPMI 5 mM glucose + 10% FBS, 0.00234 µM
[14] = RPMI 5 mM glucose + 10% FBS, 0.00702 µM
[15] = RPMI 5 mM glucose + 10% FBS, 0.0211 µM
[16] = RPMI 5 mM glucose + 10% FBS, 0.0632 µM
[17] = RPMI 5 mM glucose + 10% FBS, 0.19 µM
[18] = RPMI 5 mM glucose + 10% FBS, 0.569 µM
[19] = RPMI 5 mM glucose + 10% FBS, 1.71 µM
[20] = RPMI 5 mM glucose + 10% FBS, 5.12 µM
[21] = RPMI 5 mM glucose + 10% FBS, 15.4 µM
[22] = RPMI 5 mM glucose + 10% FBS, 46.1 µM
[23] = RPMI 5 mM glucose + 10% dialyzed FBS, 0.000781 µM
[24] = RPMI 5 mM glucose + 10% dialyzed FBS, 0.00234 µM
[25] = RPMI 5 mM glucose + 10% dialyzed FBS, 0.00702 µM
[26] = RPMI 5 mM glucose + 10% dialyzed FBS, 0.0211 µM
[27] = RPMI 5 mM glucose + 10% dialyzed FBS, 0.0632 µM
[28] = RPMI 5 mM glucose + 10% dialyzed FBS, 0.19 µM
[29] = RPMI 5 mM glucose + 10% dialyzed FBS, 0.569 µM
[30] = RPMI 5 mM glucose + 10% dialyzed FBS, 1.71 µM
[31] = RPMI 5 mM glucose + 10% dialyzed FBS, 5.12 µM
[32] = RPMI 5 mM glucose + 10% dialyzed FBS, 15.4 µM
[33] = RPMI 5 mM glucose + 10% dialyzed FBS, 46.1 µM

`Clc1cccc(-c2nnnn2Cc2cccnc2)c1Cl` was tested, and the cell viability [1] was 82.8%, the cell viability [2] was 92.7% and the cell viability [3] was 96.4%. The cell viability [4] was 99.9%, the cell viability [5] was 92.4% and the cell viability [6] was 93.1%. The cell viability [7] was 79%, the cell viability [8] was 57.2% and the cell viability [9] was 49.8%. The cell viability [10] was 48.6%, the cell viability [11] was 33.1% and the cell viability [12] was 80%. For the same compound, the cell viability [13] was 87.1%, the cell viability [14] was 89.5% and the cell viability [15] was 84.1%. It also gave a cell viability [16] of 91.5%, a cell viability [17] of 89% and a cell viability [18] of 90.5%. It also gave a cell viability [19] of 62.9%, a cell viability [20] of 55.8% and a cell viability [21] of 57.2%. It also gave a cell viability [22] of 48.5%, a cell viability [23] of 81.5% and a cell viability [24] of 83.6%. It also gave a cell viability [25] of 91.1%, a cell viability [26] of 93.6% and a cell viability [27] of 83.7%. For the same compound, the cell viability [28] was 83.2%, the cell viability [29] was 83.9% and the cell viability [30] was 52.5%. It also gave a cell viability [31] of 59.1%, a cell viability [32] of 58% and a cell viability [33] of 47.8%.
`Cc1[nH]c(/C=C2\C(=O)Nc3ccc([S+](=O)([O-])N(C)c4cccc(Cl)c4)cc32)c(C)c1C(=O)N1CCN(C)CC1` gave a cell viability [1] of 114%, a cell viability [2] of 131% and a cell viability [3] of 123%. For the same compound, the cell viability [4] was 103%, the cell viability [5] was 119% and the cell viability [6] was 99.2%. It also gave a cell viability [7] of 115%, a cell viability [8] of 120% and a cell viability [9] of 109%. For the same compound, the cell viability [10] was 103% and the cell viability [11] was 10.1%.
`CCNC(=O)C[C@@H]1\N=C(C2=CC=C(Cl)C=C2)/C3=C(C=CC(=C3)OC)[N]4C(=NN=C14)C` showed a cell viability [1] of 121%, a cell viability [2] of 130% and a cell viability [3] of 123%. The cell viability [4] was 121%, the cell viability [5] was 114% and the cell viability [6] was 120%. For the same compound, the cell viability [7] was 107%, the cell viability [8] was 84.8% and the cell viability [9] was 68.5%. It also gave a cell viability [10] of 29%, a cell viability [11] of 15% and a cell viability [12] of 108%. It also gave a cell viability [13] of 118%, a cell viability [14] of 103% and a cell viability [15] of 114%. For the same compound, the cell viability [16] was 121%, the cell viability [17] was 105% and the cell viability [18] was 104%. The cell viability [19] was 90.2%, the cell viability [20] was 76.1% and the cell viability [21] was 26.7%. It also gave a cell viability [22] of 6.87%, a cell viability [23] of 106% and a cell viability [24] of 116%. The cell viability [25] was 117%, the cell viability [26] was 109% and the cell viability [27] was 114%. The cell viability [28] was 112%, the cell viability [29] was 98% and the cell viability [30] was 89.7%. The cell viability [31] was 72.4%, the cell viability [32] was 28.4% and the cell viability [33] was 9.69%.
Work on `C#Cc1cccc(Nc2ncnc3cc(OCCOC)c(OCCO)cc23)c1` yielded a cell viability [1] of 135%, a cell viability [2] of 110% and a cell viability [3] of 119%. It also gave a cell viability [4] of 119%, a cell viability [5] of 125% and a cell viability [6] of 116%. The cell viability [7] was 100%, the cell viability [8] was 68.7% and the cell viability [9] was 63.3%. The cell viability [10] was 69.9%, the cell viability [11] was 28.1% and the cell viability [12] was 118%. The cell viability [13] was 105%, the cell viability [14] was 110% and the cell viability [15] was 94.6%. For the same compound, the cell viability [16] was 118%, the cell viability [17] was 104% and the cell viability [18] was 112%. It also gave a cell viability [19] of 94.2%, a cell viability [20] of 103% and a cell viability [21] of 93.2%. For the same compound, the cell viability [22] was 33.9%, the cell viability [23] was 118% and the cell viability [24] was 123%. It also gave a cell viability [25] of 98.2%, a cell viability [26] of 112% and a cell viability [27] of 104%. The cell viability [28] was 112%, the cell viability [29] was 118% and the cell viability [30] was 92.2%. The cell viability [31] was 104%, the cell viability [32] was 94.7% and the cell viability [33] was 41.7%.
Work on `CC#C[C@]1(O)CC[C@H]2[C@@H]/3CCC/4=C/C(=O)CCC4=C3[C@H](C[C@]12C)C5=CC=C(C=C5)N(C)C` yielded a cell viability [1] of 95.5%, a cell viability [2] of 99.9% and a cell viability [3] of 101%. It also gave a cell viability [4] of 102%, a cell viability [5] of 103% and a cell viability [6] of 96.1%. The cell viability [7] was 102%, the cell viability [8] was 94.8% and the cell viability [9] was 79.3%. For the same compound, the cell viability [10] was 9.1%, the cell viability [11] was 6.71% and the cell viability [12] was 83.5%. For the same compound, the cell viability [13] was 95.2%, the cell viability [14] was 91.3% and the cell viability [15] was 86.2%. It also gave a cell viability [16] of 90%, a cell viability [17] of 88.1% and a cell viability [18] of 93.4%. It also gave a cell viability [19] of 95.5%, a cell viability [20] of 73.2% and a cell viability [21] of 9.23%. It also gave a cell viability [22] of 5.91%, a cell viability [23] of 90.7% and a cell viability [24] of 81.5%. It also gave a cell viability [25] of 88.7%, a cell viability [26] of 97.2% and a cell viability [27] of 110%. It also gave a cell viability [28] of 90.3%, a cell viability [29] of 93% and a cell viability [30] of 85.4%. For the same compound, the cell viability [31] was 70.9%, the cell viability [32] was 9.38% and the cell viability [33] was 6.16%.
`Cc1nc(Nc2ncc(C(=O)Nc3c(C)cccc3Cl)s2)cc(N2CCN(CCO)CC2)n1` was tested, and the cell viability [1] was 90.9%, the cell viability [2] was 104% and the cell viability [3] was 102%. It also gave a cell viability [4] of 99.9%, a cell viability [5] of 107% and a cell viability [6] of 107%. For the same compound, the cell viability [7] was 113%, the cell viability [8] was 95.2% and the cell viability [9] was 83.9%. It also gave a cell viability [10] of 85.6%, a cell viability [11] of 71.9% and a cell viability [12] of 104%. For the same compound, the cell viability [13] was 102%, the cell viability [14] was 106% and the cell viability [15] was 101%. The cell viability [16] was 105%, the cell viability [17] was 105% and the cell viability [18] was 117%. The cell viability [19] was 110%, the cell viability [20] was 100% and the cell viability [21] was 89.3%. The cell viability [22] was 80.3%, the cell viability [23] was 101% and the cell viability [24] was 94.5%. The cell viability [25] was 102%, the cell viability [26] was 92.1% and the cell viability [27] was 105%. The cell viability [28] was 94.3%, the cell viability [29] was 106% and the cell viability [30] was 96.2%. The cell viability [31] was 81%, the cell viability [32] was 75.9% and the cell viability [33] was 75.9%.
`CC(C)(C)/[N+]([O-])=C/c1ccc([S+](=O)([O-])[O][Na])cc1[S+](=O)([O-])[O][Na]` showed a cell viability [1] of 97.5%, a cell viability [2] of 102% and a cell viability [3] of 111%. For the same compound, the cell viability [4] was 115%, the cell viability [5] was 121% and the cell viability [6] was 132%. The cell viability [7] was 121%, the cell viability [8] was 128% and the cell viability [9] was 129%. For the same compound, the cell viability [10] was 119%, the cell viability [11] was 127% and the cell viability [12] was 105%. The cell viability [13] was 118%, the cell viability [14] was 119% and the cell viability [15] was 126%. It also gave a cell viability [16] of 125%, a cell viability [17] of 118% and a cell viability [18] of 125%. The cell viability [19] was 128%, the cell viability [20] was 111% and the cell viability [21] was 138%. The cell viability [22] was 133%, the cell viability [23] was 94% and the cell viability [24] was 102%. It also gave a cell viability [25] of 111%, a cell viability [26] of 114% and a cell viability [27] of 111%. For the same compound, the cell viability [28] was 120%, the cell viability [29] was 127% and the cell viability [30] was 109%. It also gave a cell viability [31] of 109%, a cell viability [32] of 123% and a cell viability [33] of 120%.
Compound `C[C@@H]1CC[C@@]2(OC1)O[C@H]3C[C@H]4[C@@H]5C/C=C6/C[C@H](CC[C@]6(C)[C@H]5CC[C@]4(C)[C@H]3[C@@H]2C)O[C@@H]7O[C@H](CO)[C@@H](O[C@@H]8O[C@@H](C)[C@H](O)[C@@H](O)[C@H]8O)[C@H](O)[C@H]7O[C@@H]9O[C@@H](C)[C@H](O)[C@@H](O)[C@H]9O` has a cell viability [1] of 108%, a cell viability [2] of 122% and a cell viability [3] of 122%. For the same compound, the cell viability [4] was 127%, the cell viability [5] was 142% and the cell viability [6] was 136%. The cell viability [7] was 141%, the cell viability [8] was 152% and the cell viability [9] was 132%. For the same compound, the cell viability [10] was 124% and the cell viability [11] was 8.71%.
